According to US20260224758A1, “ALPHA-SYNUCLEIN BINDERS AND METHODS OF USE” (Merck Sharp & Dohme LLC, priority 2023, published 2026):
Like-named read-outs stand apart in the source and are kept apart here.

Tests used:
[1] = target: aggregated beta amyloid in AD tissue (Homo sapiens, UniProt P05067); assay: Competitive radioligand binding to pathological aggregated beta amyloid in AD tissue (Assay 2), displacement of [^3H]-105; conditions: Aβ-rich AD frontal cortex homogenate, [^3H]-105, Kd 11.0 nM
Chain of aggregated beta amyloid in AD tissue (P05067 672-711 limits assumed): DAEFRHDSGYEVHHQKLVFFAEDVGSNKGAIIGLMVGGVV
Experimental: Frozen human brain samples of Alzheimer's disease (AD) were purchased from Analytic Biological Services Inc. The samples were post-mortem tissue from donors with clinical diagnosis of AD and much of the white matter was dissected out of the frontal cortex in order to enrich the tissue preparations for gray matter. Brain homogenates of gray matter enriched frontal cortex were prepared by homogenizing the tissue in ice cold Phosphate Buffered Saline (PBS), pH 7.4 at 80 mg wet weight tissue per 1 ml for 45 seconds at 4° C., on setting 16 of Polytron. The homogenate was further diluted with ice cold PBS to 30 mg wet weight tissue per 1 ml and homogenized for an additional minute as described above. Homogenates were aliquoted in 5 ml/tube and stored at −70° C. until use.
Radioligand [^3H]-105, prepared as described in ACS Med. Chem. Lett., Vol. 2, pages 498-502, was used in this assay.
For Assay 2 unlabeled test compounds were dissolved in DMSO at 10 mM. Dilutions of tests compounds to various concentrations were made in 100% DMSO at 1000× final assay concentration and 0.225 μl aliquots were dispensed into assay plates. Brain homogenates were diluted to 0.5 mg/ml from original 30 mg/ml volume in Assay Buffer, and 200 μl were added to the assay plate for a final concentration of 100 ug wet weight/assay well. [^3H]-105 was prepared at 10× final concentration in Assay Buffer plus 20% DMSO and 25 μl was added to the assay plate for final assay concentration of 3.0 nM. The plates were incubated at 37° C. for 90 minutes. Unbound and bound ligand were separated by filtration of bound onto GF/B filter plates (pre-treated for 30 min with 0.1% PEI) using a Packard Filtermate and washing away unbound with 2.5 mil ice cold 5 mM Tris at pH 7.4. Filter plates were dried for 1 hr at 57° C. and 50 μl Microscint was added to each well of the plate. The plates were counted for ^3H cpm for 1 min per well using PerkinElmer TopCount.

[2] = target: T1, triton-extracted alpha-synuclein from PD Tissue (Homo sapiens, UniProt P37840); assay: Alpha-synuclein tissue homogenate binding assay (Assay 1), displacement of [^3H]-1000; conditions: for Selectivity ratio (Assay 2/Assay 1): Aβ Tissue Ki / α-synuclein Tissue Ki; for Ki: read-out: α-synuclein Tissue Ki (Assay 1)
T1 construct: tissue Analytic Biological Services Inc; host or cells: human PD temporal cortex grey matter, Triton X-100 insoluble pellet
Experimental: Frozen human brain tissues from PD patients were purchased from Analytic Biological Services Inc. The samples were post-mortem tissues from donors with clinical diagnosis of late stage of PD. Alpha-synuclein, tau and amyloid burden was determined through a combination of immunohistochemistry on frozen thin coronal sections, as well as alpha Lisa-based quantification of protein levels in a detergent insoluble protein fraction. A tissue sample of temporal cortex was identified from one donor as having moderate to high alpha-synuclein burden, low amyloid and minimal to no tau pathology. The detergent insoluble fraction of temporal cortex from this patient was used to support homogenate binding studies. Grey matter was dissected out of the temporal cortex tissue with a dissecting blade and minced with fine dissecting scissors. […] Homogenates were centrifuged at 100,000×g for 45 minutes. The pellet was resuspended in TBS-TX buffer, using a Polytron at highest setting for 30 seconds at 4° C. Homogenates were centrifuged at 100,000×g for 45 minutes and the pellet was resuspended in TBS-TX buffer. A BCA protein assay was performed on the final homogenate to determine the protein concentration. […] For displacement a-synuclein binding assay, compounds and control were solvated in dimethyl sulfoxide (DMSO) and transferred using focused acoustic energy by an Echo 655 liquid handling instrument (Beckman Coulter, Indianapolis, IN) into designated wells of uniquely bar coded 96-well v-bottom low binding polypropylene microplates (Thermo Scientific, 249946). Compound dose response curves were prepared in a 10-point, 3-fold fashion within columns 2-11 of the microplate from high to low compound concentrations. […] Liquid-handling steps for dispensing insoluble fractions of PD brain homogenates and radioligand were performed using a Bravo automated liquid handling platform equipped with a 96LT disposable tip head (Agilent Technologies, Santa Clara. CA). […] The incubation was terminated by rapid filtration through UniFilter-96 GF/C microplates (pre-treated for 30 minutes with 0.2% Polyethylenimine at 4° C.) by using a FilterMate Harvester (PerkinElmer). […] The bottom of each UniFilter-96 GF/C microplate was adhesively sealed (PerkinElmer 6005199) prior to the addition of 50 μL MicroScint-20 liquid scintillation cocktail (PerkinElmer 6013621) to each well. A clear adhesive seal (TopSeal-A PLUS, PerkinElmer 6050185) was then applied to the top of each microplate and counted 1 minute/well on MicroBeta^2 system (PerkinElmer.

[3] = insoluble fraction of PD brain homogenate, [^3H]-1000 3.0 nM, Kd 0.90 nM

Row | Ki [1] | Selectivity ratio (Assay 2/Assay 1) [2] | Ki [2, 3] | Ki [2] | SMILES
1 | ≥ 12000 nM | 3871 | 3.1 nM |  | COC[C@H]1CN(c2ccccn2)CCN1c1ncc(/C=C/c2ccc(-c3cnco3)nc2)cn1 [Example 26, (R,E)-5-(5-(2-(2-(2-(methoxymethyl)-4-(pyridin-2-yl)piperazin-1-yl)pyrimidin-5-yl)vinyl)pyridin-2-yl)oxazole]
2 | 80 nM | 44 | 1.8 nM |  | COC[C@H]1CN(c2ncc(/C=C/c3ccc(-n4ccnc4)nc3)cn2)CCN1c1ncc(F)cn1 [Example 27, (R,E)-5-(2-(6-(1H-imidazol-1-yl)pyridin-3-yl)vinyl)-2-(4-(5-fluoropyrimidin-2-yl)-3-(methoxymethyl)piperazin-1-yl)pyrimidine]
3 | 180 nM | 180 | 1 nM |  | COC[C@H]1CN(c2ccnc(F)c2)CCN1c1ncc(/C=C/c2ccc(-n3ccnc3)nc2)cn1 [Example 29, (R,E)-5-(2-(6-(1H-imidazol-1-yl)pyridin-3-yl)vinyl)-2-(4-(2-fluoropyridin-4-yl)-2-(methoxymethyl)piperazin-1-yl)pyrimidine]
4 | ≥ 12000 nM | 12000 | 1 nM |  | FCCOC[C@H]1CN(c2ncccn2)CCN1c1ncc(/C=C/c2ccc(-n3ccnc3)nc2)cn1 [Example 30, (R,E)-5-(2-(6-(1H-imidazol-1-yl)pyridin-3-yl)vinyl)-2-(2-((2-fluoroethoxy)methyl)-4-(pyrimidin-2-yl)piperazin-1-yl)pyrimidine]
5 | 1300 nM | 2600 | 0.5 nM |  | FCCOC[C@H]1CN(c2ccncc2)CCN1c1ncc(/C=C/c2ccc(-n3ccnc3)nc2)cn1 [Example 31, (R,E)-5-(2-(6-(1H-imidazol-1-yl)pyridin-3-yl)vinyl)-2-(2-((2-fluoroethoxy)methyl)-4-(pyridin-4-yl)piperazin-1-yl)pyrimidine]
6 | ≥ 12000 nM | 13333 | 0.9 nM |  | COC[C@H]1CN(c2ccc(F)nc2)CCN1c1ncc(/C=C/c2ccc(-n3ccnc3)nc2)cn1 [Example 32, (R,E)-5-(2-(6-(1H-imidazol-1-yl)pyridin-3-yl)vinyl)-2-(4-(6-fluoropyridin-3-yl)-2-(methoxymethyl)piperazin-1-yl)pyrimidine]
7 | ≥ 12000 nM | 6667 |  | 1.8 nM | OC[C@H]1CN(c2ccc(F)nc2)CCN1c1ncc(/C=C/c2ccc(-n3ccnc3)nc2)cn1 [Example 33, (R,E)-(1-(5-(2-(6-(1H-imidazol-1-yl)pyridin-3-yl)vinyl)pyrimidin-2-yl)-4-(6-fluoropyridin-3-yl)piperazin-2-yl)methanol]
8 | ≥ 12000 nM | 6667 | 1.8 nM |  | COC[C@H]1CN(c2ncc(/C=C/c3ccc(-n4ccnc4)nc3)cn2)CCN1c1ccnc(F)n1 [Example 34, (R,E)-4-(4-(5-(2-(6-(1H-imidazol-1-yl)pyridin-3-yl)vinyl)pyrimidin-2-yl)-2-(methoxymethyl)piperazin-1-yl)-2-fluoropyrimidine]
9 | ≥ 12000 nM | 12000 | 0.94 nM |  | FCCOC[C@H]1CN(c2ncc(/C=C/c3ccc(-c4cnco4)nc3)cn2)CCN1c1ncccn1 [Example 36, (R,E)-5-(5-(2-(2-(3-((2-fluoroethoxy)methyl)-4-(pyrimidin-2-yl)piperazin-1-yl)pyrimidin-5-yl)vinyl)pyridin-2-yl)oxazole]
10 | ≥ 1200 nM | 1935 | 0.62 nM |  | COC[C@H]1CN(c2ncc(/C=C/c3ccc(-c4cnn(CCF)c4)nc3)cn2)CCN1c1ncccn1 [Example 37, (R,E)-5-(2-(6-(1-(2-fluoroethyl)-1H-pyrazol-4-yl)pyridin-3-yl)vinyl)-2-(3-(methoxymethyl)-4-(pyrimidin-2-yl)piperazin-1-yl)pyrimidine]
11 | ≥ 1200 nM | 600 | 2 nM |  | FCCOCCOC[C@H]1CN(c2ncc(/C=C/c3ccc(-c4cnco4)nc3)cn2)CCN1c1ncncn1 [Example 38, (R,E)-5-(5-(2-(2-(3-((2-(2-fluoroethoxy)ethoxy)methyl)-4-(1,3,5-triazin-2-yl)piperazin-1-yl)pyrimidin-5-yl)vinyl)pyridin-2-yl)oxazole]
12 | ≥ 1200 nM | 2857 |  | 0.42 nM | Cc1cn(-c2ccc(/C=C/c3cnc(N4CCN(c5ncccn5)[C@@H](COCCF)C4)nc3)cn2)cn1 [Example 40, (R,E)-2-(3-((2-fluoroethoxy)methyl)-4-(pyrimidin-2-yl)piperazin-1-yl)-5-(2-(6-(4-methyl-1H-imidazol-1-yl)pyridin-3-yl)vinyl)pyrimidine]

More lines, now with the values behind:

Row | SMILES | Ki [1] | Selectivity ratio (Assay 2/Assay 1) [2] | Ki [2, 3] | Ki [2]
13 | COC[C@H]1CN(c2cc(F)ccn2)CCN1c1ncc(/C=C/c2ccc(N3CCOCC3)nc2)cn1 [Example 16, (R,E)-4-(5-(2-(2-(4-(4-fluoropyridin-2-yl)-2-(methoxymethyl)piperazin-1-yl)pyrimidin-5-yl)vinyl)pyridin-2-yl)morpholine] | 450 nM | 281 | 1.6 nM | 
14 | COC[C@H]1CN(c2cc(F)ccn2)CCN1c1ncc(/C=C/c2ccc(-n3ccnc3)nc2)cn1 [Example 17, (R,E)-5-(2-(6-(1H-imidazol-1-yl)pyridin-3-yl)vinyl)-2-(4-(4-fluoropyridin-2-yl)-2-(methoxymethyl)piperazin-1-yl)pyrimidine] | ≥ 12000 nM | 13333 |  | 
15 | COC[C@H]1CN(c2ccccn2)CCN1c1ncc(/C=C/c2ccc(-n3ccnc3)nc2)cn1 [Example 18, (R,E)-5-(2-(6-(1H-imidazol-1-yl)pyridin-3-yl)vinyl)-2-(2-(methoxymethyl)-4-(pyridin-2-yl)piperazin-1-yl)pyrimidine] | ≥ 12000 nM | 24000 | 0.5 nM | 
16 | COC[C@H]1CN(c2ccccn2)CCN1c1ncc(/C=C/c2cnc3nc(C)cn3c2)cn1 [Example 19, (R,E)-6-(2-(2-(2-(methoxymethyl)-4-(pyridin-2-yl)piperazin-1-yl)pyrimidin-5-yl)vinyl)-2-methylimidazo[1,2-a]pyrimidine] | ≥ 12000 nM | 8571 | 1.4 nM | 
17 | COC[C@H]1CN(c2ccccn2)CCN1c1ncc(/C=C/c2ccc(-c3ncco3)nc2)cn1 [Example 20, (R,E)-2-(5-(2-(2-(2-(methoxymethyl)-4-(pyridin-2-yl)piperazin-1-yl)pyrimidin-5-yl)vinyl)pyridin-2-yl)oxazole] | ≥ 12000 nM | 7059 | 1.7 nM | 
18 | COC[C@H]1CN(c2cc3cnccn3c2)CCN1c1ncc(/C=C/c2ccc(-n3cccn3)nc2)cn1 [Example 21, (R,E)-7-(4-(5-(2-(6-(1H-pyrazol-1-yl)pyridin-3-yl)vinyl)pyrimidin-2-yl)-3-(methoxymethyl)piperazin-1-yl)pyrrolo[1,2-a]pyrazine] | 13000 nM | 10000 |  | 1.3 nM
19 | COC[C@H]1CN(c2ncc(/C=C/c3ccc(-n4ccnc4)nc3)cn2)CCN1c1ccccn1 [Example 22, (R,E)-5-(2-(6-(1H-imidazol-1-yl)pyridin-3-yl)vinyl)-2-(3-(methoxymethyl)-4-(pyridin-2-yl)piperazin-1-yl)pyrimidine] | 1300 nM | 1857 | 0.7 nM | 
20 | OC[C@H]1CN(c2cnccn2)CCN1c1ncc(/C=C/c2ccc(-n3ccnc3)nc2)cn1 [Example 23, (R,E)-(1-(5-(2-(6-(1H-imidazol-1-yl)pyridin-3-yl)vinyl)pyrimidin-2-yl)-4-(pyrazin-2-yl)piperazin-2-yl)methanol] | ≥ 12000 nM | 10000 |  | 1.2 nM
21 | OC[C@H]1CN(c2ccncn2)CCN1c1ncc(/C=C/c2ccc(-n3ccnc3)nc2)cn1 [Example 24, (R,E)-(1-(5-(2-(6-(1H-imidazol-1-yl)pyridin-3-yl)vinyl)pyrimidin-2-yl)-4-(pyrimidin-4-yl)piperazin-2-yl)methanol] | 120 nM | 240 | 0.5 nM | 
22 | COC[C@H]1CN(c2ncc(C)cn2)CCN1c1ncc(/C=C/c2ccc(-n3ccnc3)nc2)cn1 [Example 25, (R,E)-5-(2-(6-(1H-imidazol-1-yl)pyridin-3-yl)vinyl)-2-(2-(methoxymethyl)-4-(5-methylpyrimidin-2-yl)piperazin-1-yl)pyrimidine] | 360 nM | 400 | 0.9 nM | 
